Assay results from the supplement of paper PMC13380429.

Experiments:
Details in all cases: 72 h
Caco-2 [1] = assay: cell viability relative to DMSO; higher = less toxic
HepG2 [2] = assay: as above
U2OS [3] = assay: as above
Vero E6 [4] = assay: as above
Caco-2 [5] = assay: relative viability EC50 (midpoint between 100% and the lowest measured viability); higher = less toxic
HepG2 [6] = assay: as above
U2OS [7] = assay: as above
Vero E6 [8] = assay: as above
Caco-2 [9] = assay: drug sensitivity score (DSS) for viability; higher = more toxic; extreme values may be limits of the assay
HepG2 [10] = assay: as above
U2OS [11] = assay: as above
Vero E6 [12] = assay: as above
Calu-3 [13] = assay: cell viability relative to DMSO; higher = less toxic
Calu-3 [14] = assay: drug sensitivity score (DSS) for viability; higher = more toxic; extreme values may be limits of the assay
Calu-3 [15] = assay: relative viability EC50 (midpoint between 100% and the lowest measured viability); higher = less toxic

Structure (SMILES) | cell viability (Caco-2 [1]; 1 nM) [%] | cell viability (Caco-2 [1]; 10 nM) [%] | cell viability (Caco-2 [1]; 100 nM) [%] | cell viability (Caco-2 [1]; 1000 nM) [%] | cell viability (Caco-2 [1]; 10000 nM) [%] | cell viability (HepG2 [2]; 1 nM) [%] | cell viability (HepG2 [2]; 10 nM) [%] | cell viability (HepG2 [2]; 100 nM) [%] | cell viability (HepG2 [2]; 1000 nM) [%] | cell viability (HepG2 [2]; 10000 nM) [%] | cell viability (U2OS [3]; 1 nM) [%] | cell viability (U2OS [3]; 10 nM) [%] | cell viability (U2OS [3]; 100 nM) [%] | cell viability (U2OS [3]; 1000 nM) [%] | cell viability (U2OS [3]; 10000 nM) [%] | cell viability (Vero E6 [4]; 1 nM) [%] | cell viability (Vero E6 [4]; 10 nM) [%] | cell viability (Vero E6 [4]; 100 nM) [%] | cell viability (Vero E6 [4]; 1000 nM) [%] | cell viability (Vero E6 [4]; 10000 nM) [%] | relative viability EC50 (Caco-2 [5]) [µM] | relative viability EC50 (HepG2 [6]) [µM] | relative viability EC50 (U2OS [7]) [µM] | relative viability EC50 (Vero E6 [8]) [µM] | drug sensitivity score (Caco-2 [9]) | drug sensitivity score (HepG2 [10]) | drug sensitivity score (U2OS [11]) | drug sensitivity score (Vero E6 [12]) | cell viability (Calu-3 [13]; 1 nM) [%] | cell viability (Calu-3 [13]; 10 nM) [%] | cell viability (Calu-3 [13]; 100 nM) [%] | cell viability (Calu-3 [13]; 1000 nM) [%] | cell viability (Calu-3 [13]; 10000 nM) [%] | drug sensitivity score (Calu-3 [14]) | relative viability EC50 (Calu-3 [15]) [µM]
Cn1c(COP(=O)(NCCBr)NCCBr)cnc1[N+](=O)[O-] [TH-302] | 107 | 94.5 | 98.6 | 97.7 | 89 | 97.6 | 97 | 118 | 103 | 81.3 | 103 | 105 | 99.9 | 105 | 108 | 101 | 100 | 98.8 | 93.1 | 97.5 | > 10 | > 10 | > 10 | > 10 | 0 | 0.4 | 0 | 0 | – | – | – | – | – | – | –
COC(=O)Nc1ccc(-c2nc(N3CCOCC3)c3cnn(C4CCN(C(=O)OC)CC4)c3n2)cc1 [WYE-354] | 98.3 | 99.3 | 97.3 | 83.1 | 48.3 | 104 | 107 | 94.8 | 102 | 44.8 | 99.3 | 98.3 | 104 | 98.6 | 84.8 | 97.4 | 99.7 | 91.8 | 96.4 | 64.8 | 1.38 | 3.34 | > 10 | – | 5 | 2.8 | 0.4 | 2.2 | 93.6 | 91.4 | 95.8 | 92.2 | 52.2 | 3.8 | –
CC1=C(C(=O)OC(C)C)C(c2cccc([N+](=O)[O-])c2)C(C(=O)OC2CN(C(c3ccccc3)c3ccccc3)C2)=C(N)N1 (centres undefined) [azelnidipine] | 89 | 94.8 | 100 | 87.1 | 87.6 | – | – | – | – | – | 101 | 97.5 | 98.3 | 98.1 | 90.4 | 91.4 | 97.5 | 92.1 | 96.2 | 88.1 | > 10 | – | > 10 | > 10 | 0 | – | 0 | 0 | 92.8 | 106 | 101 | 96.8 | 109 | 0 | > 10
CCN(CCO)CCCOc1ccc2c(Nc3cc(CC(=O)Nc4cccc(F)c4)[nH]n3)ncnc2c1 [barasertib-HQPA] | 93 | 100 | 78.4 | 91.6 | 88.4 | 99.5 | 99.7 | 77.8 | 72.8 | 78.8 | 94.4 | 95.8 | 93.7 | 91.7 | 87 | 93.8 | 96 | 98.2 | 91 | 88.2 | > 10 | – | > 10 | > 10 | 0.6 | 6.9 | 0 | 0 | 95.1 | 93 | 97.2 | 92.6 | 94.2 | 0 | > 10
O=c1[nH]c(=O)n([C@H]2C[C@H](O)[C@@H](CO)O2)cc1Br [broxuridine] | 96 | 85.3 | 91.6 | 94.4 | 106 | 97 | 97.1 | 98.1 | 95.3 | 66.7 | 100 | 98 | 100 | 96.4 | 97.5 | 110 | 107 | 99 | 97.8 | 79 | > 10 | – | > 10 | > 10 | 0 | 2.3 | 0 | 1 | 94.2 | 86.5 | 102 | 95.9 | 101 | 0 | > 10
CCCCc1nc(Cl)c(C(=O)O)n1Cc1ccc(-c2ccccc2-c2nn[nH]n2)cc1 [carboxylosartan] | 96.6 | 98.8 | 95.5 | 100 | 96.9 | 99.6 | 102 | 94.5 | 113 | 95.7 | 103 | 102 | 101 | 98.7 | 102 | 103 | 109 | 98.3 | 104 | 96.5 | > 10 | > 10 | > 10 | > 10 | 0 | 0 | 0 | 0 | – | – | – | – | – | – | –
CCCCCCOC(=O)NC(=N)c1ccc(NCc2nc3cc(C(=O)N(CCC(=O)OCC)c4ccccn4)ccc3n2C)cc1 [dabigatran-etexilate] | 96.5 | 88.5 | 104 | 93.8 | 78.1 | 91.6 | 106 | 88.9 | 116 | 72.7 | 97.7 | 92.9 | 101 | 95.9 | 96.9 | 97.8 | 103 | 99.4 | 102 | 108 | > 10 | – | > 10 | > 10 | 1.5 | 0.7 | 0 | 0 | 101 | 82.3 | 109 | 103 | 84.3 | 0.1 | > 10
Cc1cc(N)c2ccccc2[n+]1CCCCCCCCCC[n+]1c(C)cc(N)c2ccccc21 [dequalinium] | 96.9 | 94.4 | 98.9 | 92.2 | 36.4 | 98.6 | 100 | 92.7 | 76.2 | 33.8 | 104 | 102 | 96.2 | 102 | 60.1 | 101 | 104 | 104 | 102 | 87.4 | 2.16 | 1.38 | – | > 10 | 4.8 | 6.4 | 1.8 | 0 | 101 | 92.7 | 104 | 107 | 73.5 | 0.8 | –
CCCCc1ncc(/C=C(\Cc2cccs2)C(=O)O)n1Cc1ccc(C(=O)O)cc1 [eprosartan] | 98.1 | 106 | 105 | 110 | 103 | – | – | – | – | – | 100 | 101 | 99.3 | 102 | 95.9 | 104 | 97.7 | 100 | 97.1 | 101 | > 10 | – | > 10 | > 10 | 0 | – | 0 | 0 | 93.8 | 94.9 | 101 | 106 | 109 | 0 | > 10
O=C(CCCN1CCC(O)(c2ccc(Cl)cc2)CC1)c1ccc(F)cc1 [haloperidol] | 110 | 104 | 97.1 | 100 | 103 | – | – | – | – | – | 102 | 104 | 97.6 | 103 | 99.1 | 101 | 97.3 | 95.1 | 98.9 | 94.1 | > 10 | – | > 10 | > 10 | 0 | – | 0 | 0 | 99.5 | 97.9 | 92.6 | 104 | 114 | 0 | > 10
C[C@]1(O)C[C@@H](c2nc(-c3ccc4ccc(-c5ccccc5)nc4c3)c3c(N)nccn32)C1 [linsitinib] | 96.6 | 98.9 | 84.7 | 75.7 | 47.2 | 90.5 | 87 | 95.2 | 62 | 54.8 | 101 | 103 | 92.7 | 82.4 | 67.9 | 99.9 | 98.9 | 104 | 96.5 | 109 | 0.674 | – | – | > 10 | 6.3 | 7.5 | 3.3 | 0 | 97.7 | 104 | 101 | 116 | 104 | 0 | > 10
CCOC(=O)O[C@]1(C(=O)OCCl)CC[C@H]2[C@@H]3CCC4=CC(=O)C=C[C@]4(C)[C@H]3[C@@H](O)C[C@@]21C [loteprednol] | 112 | 104 | 99.1 | 92.1 | 77.9 | – | – | – | – | – | 105 | 102 | 100 | 93.4 | 98.1 | 102 | 100 | 102 | 99.2 | 96 | > 10 | – | > 10 | > 10 | 1.6 | – | 0 | 0 | 98.8 | 100 | 103 | 87.7 | 95.2 | 0.6 | > 10
